Laboratory results from ChEMBL document CHEMBL1157994, “Three new metabolites from marine-derived fungi of the genera coniothyrium and microsphaeropsis” (J Nat Prod, 1999).
Activity calls are given as the source filed them. The rule behind the calls is not given here.

Columns and labels:
Type in all cases: functional, organism-based
Microbotryum violaceum = experiment: Antifungal activity against Ustilago violacea at 50 ug by agar diffusion test
[1] = tested on: Aspergillus pseudoglaucus; experiment: Antifungal activity against Eurotium repens at 50 ug by agar diffusion test
Priestia megaterium = experiment: […] activity against Bacillus megaterium at 50 ug by agar diffusion test
Mycotypha microspora = experiment: Antifungal activity against Mycotypha microspora at 50 ug by agar diffusion test

SMILES | Activity (Microbotryum violaceum) | Activity [1] | Activity (Priestia megaterium) | Activity (Mycotypha microspora)
C[C@H]1OC(=O)c2c(O)cccc2[C@@H]1O | Active | – | – | –
O=C1CCC(O)c2cccc(O)c21 (stereo not drawn) | Active | Active | – | –
OCc1ccco1 | – | – | Active | –
COc1cc(O)c2c(c1)C[C@@H](C)OC2=O | – | Active | – | –
C[C@H]1OC(=O)c2c(O)cccc2[C@H]1O | Active | Active | – | –
CO[C@]12C=C3C=CC(=O)[C@@H](C)[C@@]3(C)C[C@@]1(O)[C@H](C)CO2 | Active | Active | – | –
C[C@@H]1Cc2cccc(O)c2C(=O)O1 | – | Active | – | –
COc1cc2c(c(O)c1Cl)C(=O)O[C@H](C)C2 | – | Active | – | –
CC(=O)[C@@H](C)c1cc(O)cc(O)c1 | Active | – | – | Active
